Laboratory results as given in patent publication US20130252945A1, “AMORPHOUS BIOINORGANIC IONIC LIQUID COMPOSITIONS COMPRISING PHARMACEUTICALS” (priority 2012, published 2013).
“And” between values parts separate entries of the source, which are not always exact repeats. Identical values can stand only once. Counter-ions that a name gives are not always drawn.

Experiments:
[1] = Decomposition temperature by TGA; format: physicochemical; settings: for Tdec (decomposition temperature): TGA under N2, 20° C. per minute
Experimental: (§1) Melting points of all purchased materials were determined in a capillary tube using a MeI-Temp apparatus (Barnstead/Thermo Scientific). NMR data sets were collected on a 300 MHz Bruker instrument using sample concentrations of 50 mM. Infrared spectra were measured using an Avatar 360 FT-IR ESP (ThermoElectron-Nicolet, Waltham, Mass.) equipped with a Smart DuraSamplIR horizontal attenuated total reflectance (HATR) accessory. Raman spectra were measured using a Thermo-Nicolet 470 FTIR with Nd:YAG laser excitation and HgCdTe detector. Viscosity was measured on 1 mL samples with a Viscolab 3000 viscometer (Cambridge Viscosity, Medford, Mass.). Samples were heated to 90° C., except when otherwise specified, and viscosity was recorded in 2 degree increments between 50 and 90° C. with 8 min equilibration at each temperature. Thermal characterization was carried out using a Q100 DSC and a Q500 TGA (both from TA Instruments, New Castle, Del.). DSC was performed using a 5-10 mg sample in a 40 μL aluminum crucible sealed in the glovebox. A temperature range from −60 to 150° C. was scanned twice, at ramp rates of 5° C./min and 10° C./min. TGA was performed under N2 atmosphere over a temperature range from 25-800° C. with a ramp rate of 20° C. per minute and a sample size of 10 mg.

[2] = Storage under Ar, observation for crystalline domains over 6 months; format: physicochemical; settings: stored under Ar, observed over 6 months
[3] = tested on: Pseudomonas aeruginosa biofilms (clinical isolate from sputum); experiment: Challenge of established biofilms (72 h) with test compound, CFU count; format: cell-based; settings: 6 h at 37° C.
[4] = Solubility in solvents (soluble / insoluble); settings: organic solvent or mixture
[5] = tested on: Staphylococcus aureus culture; experiment: Biofilm growth on IL-coated culture plates; format: cell-based; settings: 100 μL IL per well, counted after 72 h, limit of detection
Experimental: (§2) A second example of clear, colorless antimicrobial films formed by compositions described herein was shown with an assay that involved coating culture plates with IL and observing the biofilm growth on the coated surface. […] Aliquots of 100 μL of either a Staphylococcus aureus culture, an E. coli culture, or a Pseudomonas aeruginosa culture were added to each coated well, the plate was fed with fresh media every 24 h, and cells were counted after 72 h, as described above. The number of cells in the treated wells was below the limit of detection of the assay of 1000 cfu/mL, as compared with normal cell counts for the LB control wells, indicating high antimicrobial efficacy of the IL coating. Because bacteria colonize a surface prior to barnacles and other organisms, proof of antibacterial effects is key to showing anti-biofouling potential in aquatic environments.

E. coli culture = experiment: Biofilm growth on IL-coated culture plates; format: cell-based; settings: 100 μL IL per well, counted after 72 h, limit of detection
Experimental: as §2

[6] = tested on: Pseudomonas aeruginosa culture; experiment: Biofilm growth on IL-coated culture plates; format: cell-based; settings: 100 μL IL per well, counted after 72 h, limit of detection
Experimental: as §2

[7] = format: physicochemical; settings: 3 h incubation at a constant 120° C.
[8] = Solubility at 1 mM in unbuffered water by eye and UV-Vis after filtration; format: physicochemical; settings: unbuffered water (pH 6.5), by eye
Experimental: Solubility of phenoxybenzamine hydrochloride and phenoxybenzamine-HCl—(ZnCl2)2 at 1 mM in unbuffered water (pH 6.5) was evaluated by eye and by UV-Vis spectroscopy after filtration through a 0.45 μm syringe filter.

[9] = Shelf life by model-free isoconversional kinetic analysis of TGA data; format: physicochemical
Experimental: Zinc(II) chloride (273 mg, 2 mmol) was added to a scintillation vial that had been heated, then cooled under vacuum and charged with dry argon. Phenoxybenzamine hydrochloride (340.3 mg, 1 mmol) was added to the vial with a stir bar and the mixture was degassed with stirring at 60° C. The vial was filled with argon, sealed with a cap, and stirred for 24 h at 80° C. to produce a clear, colorless glass. […] NMR spectra for ^1H and ^13C were obtained in d6-acetone. […] Spectra of phenoxybenzamine-HCl were performed with 0, 0.25, 0.5, 1.0, 1.5, 2.0, and 5.0 molar equivalents of ZnCl2 to observe this effect. Thermal decomposition after a 3 h incubation of the IL at a constant 120° C. was 2.7% of the starting mass. In contrast, the phenoxybenzamine hydrochloride starting material loses 38% of its mass after a similar incubation. The IL was soluble (>1 mM) in acetone, water and phosphate buffered to pH 6.0. The IL was insoluble (<1 mM) in toluene and tetrahydrofuran. […] The manufacturer's shelf life for 10 mg phenoxybenzamine hydrochloride tablets is 2 years, or 730 days, and the calculated value for solid phenoxybenzamine hydrochloride (5% decay at 20° C.) was 750 days (2.05 years), indicating good agreement of the calculation with actual shelf life. […]

[10] = Viscosity (Viscolab 3000 viscometer); format: physicochemical; settings: at 90° C.
Experimental: as §1

With `CNC(=C[N+](=O)[O-])NCCSCc1ccc(CN(C)C)o1.Cl.[Cl][Zn][Cl].[Cl][Zn][Cl]` the “Tdec (decomposition temperature)” value [1] was 230.9 °C and the “appearance of crystalline domains on storage” value (from here on “appearance”) [2] was “no crystalline domains appeared”.

For `CCCC[N+]1(C)CCCC1.O=S(=O)([N-]S(=O)(=O)C(F)(F)F)C(F)(F)F` [BMP-NTf2, 1-butyl-1-methypyrrolidinium bistriflimide], the “cell count of biofilm after challenge” value ([3]; neat) was 2×10^5.

In the case of `CN1[C@@H]2CC[C@H]1CC(OC(=O)C(O)c1ccccc1)C2` (stereo partly drawn) [Homatropine-HCl—(ZnCl2)2], the solubility ([4]; dimethylsulfoxide) is reported as greater than 1000 µM, the solubility ([4]; toluene) is reported as less than 1000 µM and the “ΔTdec (increase in decomposition temperature relative to HCl starting material)” value ([1]; TGA) is reported as “+7.8 °C”. For the same compound, the “appearance” value [2] was “no crystalline domains appeared”.

With `CN(C)CCCN1c2ccccc2CCc2ccccc21.Cl.[Cl][Zn][Cl].[Cl][Zn][Cl]` [Imipramine-HCl—(ZnCl2)2] the “appearance” value [2] was “no crystalline domains appeared”.

With `[Cl-].[Na+]` [NaCl] the “cell count of biofilm after challenge” value ([3]; 5 M in LB, control for ionic strength) was 1×10^6 cells.

With `[Cl-].[Cl-].[Zn+2]` [ZnCl2, Zinc(II) chloride] the “cell count of biofilm after challenge” value ([3]; 1.8 M in LB) was 4×10^5.

In the case of `CC(C)(C)CC(C)(C)c1ccc(OCCOCC[N+](C)(C)Cc2ccccc2)cc1` [benzethonium chloride, Benzethonium chloride], the “viable dispersed cell count (conservative estimate)” value ([3]; 78 mM in LB, formed precipitate) is reported as ~5×10^4 cfu/mL.

With `CC(C)(C)CC(C)(C)c1ccc(OCCOCC[N+](C)(C)Cc2ccccc2)cc1` [benzethonium-Cl—(ZnCl2)2, Benzethonium-Cl—(ZnCl2)2] the “number of cells in treated (IL-coated) wells” value (from here on “number of cells in treated”) [5] was less than 1000 cfu/mL, the “number of cells in treated” value (E. coli culture) was less than 1000 cfu/mL and the “number of cells in treated” value [6] was less than 1000 cfu/mL.

With `CC(COc1ccccc1)N(CCCl)Cc1ccccc1` (stereo not drawn) [phenoxybenzamine hydrochloride, Phenoxybenzamine hydrochloride, reference compound] the “thermal decomposition (loss of starting mass)” value [7] was 38%.

For `CC(COc1ccccc1)N(CCCl)Cc1ccccc1.Cl.[Cl][Zn][Cl].[Cl][Zn][Cl]` (stereo not drawn) [phenoxybenzamine-HCl—(ZnCl2)2, Phenoxybenzamine-HCl—(ZnCl2)2], the “solubility in unbuffered water (appeared to completely dissolve)” value [8] was ≥ 1 mM and ≥ 0.34 mg/mL, the “appearance” value [2] was “no crystalline domains appeared” and the “improvement of shelf life over solid phenoxybenzamine hydrochloride” value ([9]; at 20° C., 5% decomposition) was 7.7 fold. For the same compound, the “improvement of shelf life over standard formulation in syrup and propylene glycol” value ([9]; compared with 4-day refrigerator shelf life) was 1500 fold and the “thermal decomposition (loss of starting mass)” value [7] was 2.7%.

With Ethambutol-(HCl)2—(ZnCl2)2 the Viscosity [10] was 17350 cP and the “appearance” value [2] was “no crystalline domains appeared”.

In the case of Procainamide-HCl—(ZnCl2)2, the “Tdec (decomposition temperature)” value [1] is reported as 291.0 °C and the “appearance” value [2] is reported as “no crystalline domains appeared”.
